Marks after values point to notes of the source that are not given here.
How the values were obtained:
PPARγ = biological target: T1, PPARγ (Homo sapiens, UniProt P37231); assay: Commercial PPARγ binding assay (Invitrogen, PPAR-LBD/Fluormone PPAR Green complex); conditions: for PPARγ binding signal (fluorescence polarization, Fluormone PPAR Green displacement): mean of three experiments; for Binding to PPARγ (in words): referring to FIG. 1 and Table B
T1 construct: purchased Invitrogen Corporation, Carlsbad, Calif
T1 sequence (P37231 238-503 limits assumed): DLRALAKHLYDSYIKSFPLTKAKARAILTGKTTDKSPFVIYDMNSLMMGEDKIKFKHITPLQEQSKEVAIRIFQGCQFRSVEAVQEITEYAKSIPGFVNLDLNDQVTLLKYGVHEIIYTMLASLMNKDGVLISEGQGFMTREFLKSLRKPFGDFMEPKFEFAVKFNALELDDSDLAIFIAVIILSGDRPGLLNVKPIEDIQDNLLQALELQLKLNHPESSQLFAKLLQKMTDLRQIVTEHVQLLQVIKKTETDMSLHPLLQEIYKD
Experimental: The ability of several exemplary compounds of the present invention, shown in Table A, to bind to PPARγ was measured using a commercial binding assay (Invitrogen Corporation, Carlsbad, Calif.) that measures the test compounds ability to bind with PPAR-LBD/Fluormone PPAR Green complex. These assays were performed on three occasions with each assay using four separate wells (quadruplicate) at each concentration of tested compound. The data are mean and SEM of the values obtained from the three experiments. […] Compounds were added at the concentrations shown, which range from 0.1-100 micromolar.

Diabetic KKAy mice [1] = assay: Glucose, insulin and triglyceride in diabetic KKAy mice, 4 days oral dosing; type: in vivo; conditions: for Glucose / Insulin / Triglycerides: 93 mg/kg orally for 4 days, fasted, blood approx. 18 hours after last dose, mean and SEM; for Effectiveness at lowering glucose, insulin and triglyceride levels / antidiabetic activity (in words): Table C
Experimental: The insulin sensitizing and antidiabetic pharmacology are measured in the KKA^Y mice as previously reported [Hofmann, C., Lomez, K., and Colca, J. R. (1991). Glucose transport deficiency corrected by treatment with the oral anti-hyperglycemic agent Pioglitazone. Endocrinology, 129:1915-1925.]. Compounds are formulated in 1% sodium carboxy methylcellulose, and 0.01% tween 20 and dosed daily by oral gavage.
Compounds were formulated by suspension and orally dosed to KKAy mice at 93 mg/kg for 4 days. The compounds were first dissolved in DMSO and then placed into aqueous suspension containing 7-10% DMSO, 1% sodium methylcarboxycellulose, and 0.01% Tween 20. On the fifth day, the mice were fasted and blood samples were obtained approximately 18 hours after the last dose. The parameters were measured by standard assay methods. Data are mean and SEM N=6-12 mice.

Diabetic KKAy mice [2] = assay: Glucose and insulin in diabetic KKAy mice dosed 7 days with compound 1 or rosiglitazone; type: in vivo; conditions: 20 mg rosiglitazone or 100 mg/kg compound 1, fasting, 8th day, mean, 8 mice/group
Experimental: KKAy mice were dosed for 7 days with 20 mg rosigltiazone (positive control) and 100 mg/kg of compound 1 in suspension (1% sodium methyl carboxymethyl cellulose/0.01% Tween 80). On the 8th day, fasting, glucose, and insulin were measured, see Table D. The liver was isolated was used to measure hepatic mRNA for aP2, a biomarker for PPARγ activation in vivo. […] Data are mean and (SEM) for 8 mice/group.

Row | SMILES | PPARγ binding signal (fluorescence polarization, Fluormone PPAR Green displacement) (PPARγ; 1 μM compound) | PPARγ binding signal (fluorescence polarization, Fluormone PPAR Green displacement) (PPARγ; 3 μM compound) | PPARγ binding signal (fluorescence polarization, Fluormone PPAR Green displacement) (PPARγ; 10 μM compound) | PPARγ binding signal (fluorescence polarization, Fluormone PPAR Green displacement) (PPARγ; 50 μM compound) | PPARγ binding signal (fluorescence polarization, Fluormone PPAR Green displacement) (PPARγ; 100 μM compound) | PPARγ binding signal (fluorescence polarization, Fluormone PPAR Green displacement) (PPARγ; .1 μM compound) | PPARγ binding signal (fluorescence polarization, Fluormone PPAR Green displacement) (PPARγ; .3 μM compound) | Binding to PPARγ (in words) (PPARγ) | Glucose (Diabetic KKAy mice [1]; N=6-12, 93 mg/kg) [mg/dL] | Insulin (Diabetic KKAy mice [1]; N=6-12, 93 mg/kg) [ng/mL] | Triglycerides (Diabetic KKAy mice [1]; N=6-12, 93 mg/kg) [mg/dL] | Effectiveness at lowering glucose, insulin and triglyceride levels / antidiabetic activity (in words) (Diabetic KKAy mice [1]) | Glucose (Diabetic KKAy mice [1]; N=6-12) | Insulin (Diabetic KKAy mice [1]; N=6-12) | Triglycerides (Diabetic KKAy mice [1]; N=6-12) | Glucose (Diabetic KKAy mice [2]) [mg/dL] | Insulin (Diabetic KKAy mice [2]) [ng/mL]
1 | CCc1ccc(CCOc2ccc(CC3(C)SC(=O)NC3=O)cc2)nc1 (single isomer, unassigned) [Compound 4] | 234 | 224 | 200 | 122 | 91 | 236 | 230 |  |  |  |  |  |  |  |  |  | 
2 | CCc1ccc(CCOc2ccc(CC3(C)SC(=O)NC3=O)cc2)nc1 (single isomer, unassigned) [Compound 6] | 233 | 223 | 198 | 126 | 99 | 246 | 246 | better PPARγ binding compounds | 694 ± 63 | 11.1 ± 1.6 | 298 ± 49 | not as effective as compounds 1 and 2 |  |  |  |  | 
3 | CCc1ccc(CCOc2ccc(CC3(C)SC(=O)NC3=O)cc2)nc1 (single isomer, unassigned) [Compound 7] | 248 | 237 | 210 | 144 | 105 | 249 | 246 | better PPARγ binding compounds | 631 ± 7 | 16.3 ± 1.2 | 374 ± 15 | not as effective as compounds 1 and 2 |  |  |  |  | 
4 | CCc1ccc([C@@H](O)COc2ccc(CC3SC(=O)NC3=O)cc2)nc1 (stereo partly drawn) [Compound 2] | 238 | 236 | 223 | 162 | 136 | 231 | 233 | particularly poor binders |  |  |  | equivalent antidiabetic activity | 428 +/− 17* mg/dl | 5.7 +/− 1.6* ng/ml | 187 +/− 29* mg/dl |  | 
5 | CCc1ccc([C@H](O)COc2ccc(CC3SC(=O)NC3=O)cc2)nc1 (stereo partly drawn) [Compound 3] | 203 | 185 | 134 | 88 | 77 | 226 | 221 |  |  |  |  | equivalent antidiabetic activity | 388 +/− 38* mg/dl | 7.2 +/− 1.9* ng/ml | 148 +/− 23* mg/dl |  | 
6 | CCc1ccc(C(O)COc2ccc(CC3(C)SC(=O)NC3=O)cc2)nc1 (stereo not drawn) [Compound 5] | 228 | 226 | 212 | 132 | 106 | 235 | 230 |  |  |  |  |  |  |  |  |  | 
7 | CCc1ccc([C@@H](O)COc2ccc(CC3(C)SC(=O)NC3=O)cc2)nc1 (stereo partly drawn) [Compound 8] | 239 | 241 | 233 | 199 | 186 | 237 | 243 |  |  |  |  |  | 756 ± 31 mg/dL | 12.8 ± 2.6 ng/mL | 465 ± 64 mg/dL |  | 
8 | CCc1ccc([C@H](O)COc2ccc(CC3(C)SC(=O)NC3=O)cc2)nc1 (stereo partly drawn) [Compound 9] | 239 | 233 | 234 | 189 | 164 | 237 | 237 |  |  |  |  |  | 740 ± 37 mg/dL | 14.8 ± 2.5 ng/mL | 354 ± 43 mg/dL |  | 
9 | CCc1ccc(C(=O)COc2ccc(CC3(C)SC(=O)NC3=O)cc2)nc1 (stereo not drawn) [Compound 10] | 240 | 234 | 219 | 126 | 93 | 245 | 239 |  |  |  |  |  |  |  |  |  | 
10 | CCc1ccc(C(=CC(=O)OC)COc2ccc(CC3SC(=O)NC3=O)cc2)nc1 (stereo not drawn) [Compound 11] | 232 | 229 | 165 | 128 | 78 | 230 | 227 |  |  |  |  |  | 662 ± 40 mg/dL | 18.9 ± 1.6 ng/mL | 476 ± 106 mg/dL |  | 
11 | CCc1ccc(C(COc2ccc(CC3SC(=O)NC3=O)cc2)CC(=O)OC)nc1 (stereo not drawn) [Compound 12] | 198 | 155 | 112 | 80 | 85 | 243 | 222 |  |  |  |  |  |  |  |  |  | 
12 | CCc1ccc(C(=CCO)COc2ccc(CC3SC(=O)NC3=O)cc2)nc1 (stereo not drawn) [Compound 13] | 229 | 230 | 204 | 148 | 108 | 244 | 243 |  |  |  |  |  |  |  |  |  | 
13 | CN(CCOc1ccc(CC2SC(=O)NC2=O)cc1)c1ccccn1 (stereo not drawn) [Rosiglitazone, reference compound] |  |  |  |  |  |  |  |  |  |  |  |  |  |  |  | 320 | 3.4

— US9155729B2, “Thiazolidinedione analogues” (Metabolic Solutions Development Company, LLC, priority 2006, dated 2015)
